The source of these data is patent US8076338B2, “Kinase modulators and methods of use” (Exelixis, Inc., priority 2004, dated 2011).

One assay concerns the target AktK (Homo sapiens, UniProt P31749). Briefly: Luciferase-coupled chemiluminescence kinase assay (ATP consumption). The assay is classed as biochemical. Particulars: read-out: AKT-1 IC50. The essentials:
(§1)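 Activity is read as ATP depletion: luciferase-luciferin reagent added after a 3 h ambient-temperature kinase reaction, with total ATP use limited to 25-60%. Before ATP addition, 2.5-5 nM kinase and compound were preincubated 30 min in Tris pH 7.5/MgCl2/TX-100/DTT buffer; […].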

The next assay has as its target p70S6K (Homo sapiens, UniProt P23443). Described as above. The assay is classed as biochemical. The essentials:
as §1

SMILES strings stand for the structures.

AktK, sequence (P31749 whole entry): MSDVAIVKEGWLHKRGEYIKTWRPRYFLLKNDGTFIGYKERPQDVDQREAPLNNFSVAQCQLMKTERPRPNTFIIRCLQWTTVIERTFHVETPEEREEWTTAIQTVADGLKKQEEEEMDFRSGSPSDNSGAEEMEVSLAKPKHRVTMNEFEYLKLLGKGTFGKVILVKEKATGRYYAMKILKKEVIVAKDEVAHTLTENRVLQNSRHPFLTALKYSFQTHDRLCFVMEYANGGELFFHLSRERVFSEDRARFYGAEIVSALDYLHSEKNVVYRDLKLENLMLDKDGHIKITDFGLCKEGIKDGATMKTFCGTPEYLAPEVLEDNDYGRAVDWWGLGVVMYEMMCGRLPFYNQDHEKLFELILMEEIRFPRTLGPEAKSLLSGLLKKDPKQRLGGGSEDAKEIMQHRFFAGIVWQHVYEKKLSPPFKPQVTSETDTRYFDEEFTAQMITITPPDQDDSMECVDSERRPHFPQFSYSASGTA
p70S6K, sequence (P23443 whole entry): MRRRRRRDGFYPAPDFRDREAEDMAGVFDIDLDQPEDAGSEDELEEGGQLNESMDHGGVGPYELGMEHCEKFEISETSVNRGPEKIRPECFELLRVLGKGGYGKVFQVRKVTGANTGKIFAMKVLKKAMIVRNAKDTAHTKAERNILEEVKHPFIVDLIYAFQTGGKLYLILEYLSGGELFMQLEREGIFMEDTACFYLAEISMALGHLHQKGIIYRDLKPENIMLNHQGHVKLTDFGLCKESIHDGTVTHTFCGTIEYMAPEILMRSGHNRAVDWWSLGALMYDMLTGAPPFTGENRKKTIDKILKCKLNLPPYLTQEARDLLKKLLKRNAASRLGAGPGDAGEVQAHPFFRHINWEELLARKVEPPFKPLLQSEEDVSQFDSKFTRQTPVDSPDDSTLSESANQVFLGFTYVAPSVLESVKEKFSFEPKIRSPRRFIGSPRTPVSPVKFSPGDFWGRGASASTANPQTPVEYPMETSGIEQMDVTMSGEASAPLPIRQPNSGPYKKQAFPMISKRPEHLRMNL

As to `Cc1ccc(Cl)cc1N1CCN(c2ncnc3[nH]nc(-c4ccc(Oc5ccccc5)cc4)c23)CC1` [Entry 358, 4-[4-(5-chloro-2-methylphenyl)piperazin-1-yl]-3-[4-(phenyloxy)phenyl]-1H-pyrazolo[3,4-d]pyrimidine], the IC50 on AktK fell in the range of 1000 to 10000 nM; against p70S6K it was 100 to 1000 nM.
Consider `CCc1n[nH]c2ncnc(N3CCN(c4cccc(Cl)c4)C(C(=O)NCCN(C)C)C3)c12` (centres unmarked) [Entry 360, 1-(3-chlorophenyl)-N-[2-(dimethylamino)ethyl]-4-(3-ethyl-1H-pyrazolo[3,4-d]pyrimidin-4-yl)piperazine-2-carboxamide], for which the IC50 on AktK and at p70S6K was 1000 to 10000 nM throughout.
As for `CCc1n[nH]c2ncnc(N3CCN(c4cc(Cl)cc(N5CCOCC5)c4C)CC3)c12` [Entry 361, 4-[4-(5-chloro-2-methyl-3-morpholin-4-ylphenyl)piperazin-1-yl]-3-ethyl-1H-pyrazolo[3,4-d]pyrimidine], the results for the IC50 on AktK and at p70S6K were 1000 to 10000 nM and 100 to 1000 nM, respectively.
Regarding `COc1ccccc1-c1n[nH]c2ncnc(N3CCN(c4cc(Cl)ccc4C)CC3)c12` [Entry 363, 4-[4-(5-chloro-2-methylphenyl)piperazin-1-yl]-3-[2-(methyloxy)phenyl]-1H-pyrazolo[3,4-d]pyrimidine], the IC50 lay in the range of 1000 to 10000 nM at AktK and 100 to 1000 nM against p70S6K.
Consider `Cc1ccc(Cl)cc1N1CCN(c2ncnc3[nH]nc(-c4ccncc4)c23)CC1` [Entry 364, 4-[4-(5-chloro-2-methylphenyl)piperazin-1-yl]-3-pyridin-4-yl-1H-pyrazolo[3,4-d]pyrimidine], for which the IC50 on AktK is 1000 to 10000 nM; against p70S6K, less than 100 nM.
The corresponding values for `COc1cccc(-c2n[nH]c3ncnc(N4CCN(c5cc(Cl)ccc5C)CC4)c23)c1` [Entry 365, 4-[4-(5-chloro-2-methylphenyl)piperazin-1-yl]-3-[3-(methyloxy)phenyl]-1H-pyrazolo[3,4-d]pyrimidine] are 1000 to 10000 nM and 1000 to 10000 nM.
In the same order, the values of `Cc1ccc(Cl)cc1N1CCN(c2ncnc3[nH]nc(-c4ccc(C#N)cc4)c23)CC1` [Entry 366, 4-{4-[4-(5-chloro-2-methylphenyl)piperazin-1-yl]-1H-pyrazolo[3,4-d]pyrimidin-3-yl}benzonitrile] are 1000 to 10000 nM and 1000 to 10000 nM.
Turning to `CCc1n[nH]c2ncnc(N3CCN(c4cc(Cl)cc(CO)c4OC)CC3)c12` [Entry 367, [5-chloro-3-[4-(3-ethyl-1H-pyrazolo[3,4-d]pyrimidin-4-yl)piperazin-1-yl]-2-(methyloxy)phenyl]methanol], the values for the IC50 on AktK and against p70S6K were 1000 to 10000 nM and less than 100 nM, respectively.
For the compound `CCc1n[nH]c2ncnc(N3CCN(c4cc(Cl)cc(C(=O)OC)c4OC)CC3)c12` [Entry 368, methyl 5-chloro-3-[4-(3-ethyl-1H-pyrazolo[3,4-d]pyrimidin-4-yl)piperazin-1-yl]-2-(methyloxy)benzoate], the IC50 on AktK lay in the range of 1000 to 10000 nM; on p70S6K, 100 to 1000 nM.
On to `Cc1ccc(Cl)cc1N1CCN(c2ncnc3[nH]nc(/C=C/C(=O)O)c23)CC1` [Entry 369, (2E)-3-{4-[4-(5-chloro-2-methylphenyl)piperazin-1-yl]-1H-pyrazolo[3,4-d]pyrimidin-3-yl}prop-2-enoic acid], for which the values for the IC50 on AktK and against p70S6K were 100 to 1000 nM and less than 100 nM, respectively.
The corresponding values for `Cc1ccc(Cl)cc1N1CCN(c2ncnc3[nH]nc(CCC(=O)O)c23)CC1` [Entry 370, 3-{4-[4-(5-chloro-2-methylphenyl)piperazin-1-yl]-1H-pyrazolo[3,4-d]pyrimidin-3-yl}propanoic acid] are 1000 to 10000 nM and less than 100 nM.
The corresponding values for `Cc1ccc(Cl)cc1N1CCN(c2ncnc3[nH]nc(CCCO)c23)CC1` [Entry 371, 3-{4-[4-(5-chloro-2-methylphenyl)piperazin-1-yl]-1H-pyrazolo[3,4-d]pyrimidin-3-yl}propan-1-ol] are 1000 to 10000 nM and less than 100 nM.
The corresponding values for `COC(=O)/C=C/c1n[nH]c2ncnc(N3CCN(c4cc(Cl)ccc4C)CC3)c12` [Entry 372, methyl (2E)-3-{4-[4-(5-chloro-2-methylphenyl)piperazin-1-yl]-1H-pyrazolo[3,4-d]pyrimidin-3-yl}prop-2-enoate] are 1000 to 10000 nM and less than 100 nM.
On to `Cc1ccc(Cl)cc1N1CCN(c2ncnc3[nH]nc(-c4ccc(OCCN5CCOCC5)cc4)c23)CC1` [Entry 373, 4-[4-(5-chloro-2-methylphenyl)piperazin-1-yl]-3-{4-[(2-morpholin-4-ylethyl)oxy]phenyl}-1H-pyrazolo[3,4-d]pyrimidine], for which the IC50 at AktK and on p70S6K was 1000 to 10000 nM throughout.
As for `CCc1n[nH]c2ncnc(N3CCN(c4cc(Cl)cc(C(=O)NCCN(C)C)c4OC)CC3)c12` [Entry 374, 5-chloro-N-[2-(dimethylamino)ethyl]-3-[4-(3-ethyl-1H-pyrazolo[3,4-d]pyrimidin-4-yl)piperazin-1-yl]-2-(methyloxy)benzamide], the IC50 on AktK was 1000 to 10000 nM; against p70S6K, less than 100 nM.
In the same order, the values of `CCc1n[nH]c2ncnc(N3CCN(c4cc(Cl)cc(C(=O)N5CCN(C)CC5)c4OC)CC3)c12` [Entry 375, 4-(4-{5-chloro-2-(methyloxy)-3-[(4-methylpipera-zin-1-yl)carbonyl]phenyl}piperazin-1-yl)-3-ethyl-1H-pyrazolo[3,4-d]pyrimidine] are not below 10000 nM and 100 to 1000 nM.
The corresponding values for `CCc1n[nH]c2ncnc(N3CCN(c4cc(Cl)cc(C(=O)OCCN(C)C)c4OC)CC3)c12` [Entry 376, 2-(dimethylamino)ethyl 5-chloro-3-[4-(3-ethyl-1H-pyrazolo[3,4-d]pyrimidin-4-yl)piperazin-1-yl]-2-(methyloxy)benzoate] are 1000 to 10000 nM and less than 100 nM.
The corresponding values for `CCc1n[nH]c2ncnc(N3CCN(c4cc(Cl)cc(CN(C)C)c4OC)CC3)c12` [Entry 377, 1-[5-chloro-3-[4-(3-ethyl-1H-pyrazolo[3,4-d]pyrimidin-4-yl)piperazin-1-yl]-2-(methyloxy)phenyl]-N,N-dimethylmethanamine] are not below 10000 nM and 100 to 1000 nM.
For `CCc1n[nH]c2ncnc(N3CCN(c4cc(Cl)cc(CNCCN(C)C)c4OC)CC3)c12` [Entry 378, N′-{[5-chloro-3-[4-(3-ethyl-1H-pyrazolo[3,4-d]pyrimidin-4-yl)piperazin-1-yl]-2-(methyloxy)phe-nyl]methyl}-N,N-dimethylethane-1,2-diamine], the results for the IC50 at AktK and against p70S6K were 1000 to 10000 nM and 100 to 1000 nM, respectively.
In the case of `CCc1n[nH]c2ncnc(N3CCN(c4cccc(Cl)c4)C(CO)C3)c12` (centres unmarked) [Entry 379, [1-(3-chlorophenyl)-4-(3-ethyl-1H-pyrazolo[3,4-d]pyrimidin-4-yl)piperazin-2-yl]methanol], the figures for the IC50 on AktK and against p70S6K were 1000 to 10000 nM and less than 100 nM, respectively.
In the same order, the values of `Cc1ccc(Cl)cc1N1CCN(c2ncnc3[nH]nc(-c4ccc(OCCCN(C)C)cc4)c23)CC1` [Entry 380, 3-[(4-{4-[4-(5-chloro-2-methylphenyl)piperazin-1-yl]-1H-pyrazolo[3,4-d]pyrimidin-3-yl}phenyl)oxy]-N,N-dimethylpropan-1-amine] are 1000 to 10000 nM and 1000 to 10000 nM.
The corresponding values for `CCc1n[nH]c2ncnc(N3CCN(c4cc(Cl)c(O)cc4C)CC3)c12` [Entry 381, 2-chloro-4-[4-(3-ethyl-1H-pyrazolo[3,4-d]pyrimidin-4-yl)piperazin-1-yl]-5-methylphenol] are 1000 to 10000 nM and less than 100 nM.

For orientation: IC50 means the midpoint of a concentration-inhibition curve.
